According to ChEMBL document CHEMBL5465560, “Selectivity Literature for EUbOPEN Chemogenomic Library” (2024):
One block for each molecule: values may come before it.

Experiments:
[1] = target: T1, Cyclin-G-associated kinase (Homo sapiens) (UniProt O14976); experiment: Selectivity interaction (Ambit kinase binding assay panel) EUB0000608a GAK; settings: at 10 µM
T1 sequence (whole entry): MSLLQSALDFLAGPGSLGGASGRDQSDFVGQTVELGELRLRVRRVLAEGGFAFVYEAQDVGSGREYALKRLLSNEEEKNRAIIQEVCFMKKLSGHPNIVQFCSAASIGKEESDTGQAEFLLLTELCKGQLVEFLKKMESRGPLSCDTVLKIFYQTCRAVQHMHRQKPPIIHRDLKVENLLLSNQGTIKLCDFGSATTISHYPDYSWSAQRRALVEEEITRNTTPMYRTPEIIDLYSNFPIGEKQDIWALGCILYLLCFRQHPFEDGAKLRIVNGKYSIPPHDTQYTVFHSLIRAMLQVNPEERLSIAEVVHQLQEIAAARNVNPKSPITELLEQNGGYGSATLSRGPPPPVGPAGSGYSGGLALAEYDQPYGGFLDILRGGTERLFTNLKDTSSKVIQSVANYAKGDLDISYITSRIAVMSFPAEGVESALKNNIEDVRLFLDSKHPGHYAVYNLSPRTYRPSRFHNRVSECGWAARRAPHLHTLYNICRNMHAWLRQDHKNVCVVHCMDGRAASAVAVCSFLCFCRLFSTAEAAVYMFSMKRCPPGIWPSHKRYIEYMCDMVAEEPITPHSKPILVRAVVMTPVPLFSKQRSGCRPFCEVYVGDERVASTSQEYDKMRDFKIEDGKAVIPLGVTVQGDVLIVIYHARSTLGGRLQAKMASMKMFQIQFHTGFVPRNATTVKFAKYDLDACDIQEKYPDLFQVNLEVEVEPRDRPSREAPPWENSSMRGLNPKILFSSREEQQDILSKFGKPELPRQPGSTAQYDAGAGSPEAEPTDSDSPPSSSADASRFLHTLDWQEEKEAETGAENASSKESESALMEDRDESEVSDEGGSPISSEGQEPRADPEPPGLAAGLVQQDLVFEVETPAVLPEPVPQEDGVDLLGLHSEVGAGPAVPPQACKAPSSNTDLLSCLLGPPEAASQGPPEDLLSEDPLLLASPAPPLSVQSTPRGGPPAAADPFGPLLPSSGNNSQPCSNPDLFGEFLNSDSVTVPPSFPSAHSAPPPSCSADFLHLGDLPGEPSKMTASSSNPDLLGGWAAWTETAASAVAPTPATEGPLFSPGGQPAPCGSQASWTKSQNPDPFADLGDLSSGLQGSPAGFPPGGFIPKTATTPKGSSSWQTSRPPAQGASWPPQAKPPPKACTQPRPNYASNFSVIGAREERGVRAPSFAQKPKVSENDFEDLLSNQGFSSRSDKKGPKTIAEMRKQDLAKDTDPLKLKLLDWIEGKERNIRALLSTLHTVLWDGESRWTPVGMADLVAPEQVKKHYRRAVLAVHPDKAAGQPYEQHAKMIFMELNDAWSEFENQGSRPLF

[2] = target: Receptor-type tyrosine-protein kinase FLT3 (Homo sapiens) (UniProt P36888); experiment: Selectivity interaction (Ambit kinase binding assay panel) EUB0000608a FLT3; settings: at 10 µM
[3] = target: T2, Serine/threonine-protein kinase PLK4 (Homo sapiens) (UniProt O00444); experiment: Selectivity interaction (Ambit kinase binding assay panel) EUB0000608a PLK4; settings: at 10 µM
T2 sequence (whole entry): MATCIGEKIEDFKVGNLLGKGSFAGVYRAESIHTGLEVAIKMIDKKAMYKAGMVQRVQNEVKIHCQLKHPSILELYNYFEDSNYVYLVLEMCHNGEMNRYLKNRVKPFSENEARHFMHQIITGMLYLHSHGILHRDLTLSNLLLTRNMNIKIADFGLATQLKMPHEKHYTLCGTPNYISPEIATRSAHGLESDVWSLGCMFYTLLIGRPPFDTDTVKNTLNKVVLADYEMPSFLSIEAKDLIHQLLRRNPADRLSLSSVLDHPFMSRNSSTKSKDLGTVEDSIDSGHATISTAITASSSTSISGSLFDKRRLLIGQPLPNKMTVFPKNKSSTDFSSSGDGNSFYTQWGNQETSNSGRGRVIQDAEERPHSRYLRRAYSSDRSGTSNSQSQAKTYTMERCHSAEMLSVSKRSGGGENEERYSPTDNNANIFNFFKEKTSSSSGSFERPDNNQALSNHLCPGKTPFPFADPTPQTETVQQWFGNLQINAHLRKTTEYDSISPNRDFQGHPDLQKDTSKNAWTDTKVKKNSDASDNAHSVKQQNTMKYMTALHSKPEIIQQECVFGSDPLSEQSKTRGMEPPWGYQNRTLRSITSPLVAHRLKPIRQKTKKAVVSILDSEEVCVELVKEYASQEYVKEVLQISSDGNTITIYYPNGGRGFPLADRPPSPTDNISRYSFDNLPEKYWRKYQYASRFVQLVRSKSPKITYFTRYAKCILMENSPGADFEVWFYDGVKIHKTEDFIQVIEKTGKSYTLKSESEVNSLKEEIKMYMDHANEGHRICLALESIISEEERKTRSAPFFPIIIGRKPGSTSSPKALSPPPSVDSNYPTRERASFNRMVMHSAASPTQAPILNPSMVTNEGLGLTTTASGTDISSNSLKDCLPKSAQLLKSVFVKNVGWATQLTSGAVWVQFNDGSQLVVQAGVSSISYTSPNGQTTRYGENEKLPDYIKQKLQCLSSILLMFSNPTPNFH

Focal adhesion kinase 1 = Focal adhesion kinase 1 (Homo sapiens, UniProt Q05397); experiment: Selectivity interaction (Ambit kinase binding assay panel) EUB0000608a PTK2; settings: at 10 µM
Sequence of Focal adhesion kinase 1 (Q05397 2-1052 limits assumed): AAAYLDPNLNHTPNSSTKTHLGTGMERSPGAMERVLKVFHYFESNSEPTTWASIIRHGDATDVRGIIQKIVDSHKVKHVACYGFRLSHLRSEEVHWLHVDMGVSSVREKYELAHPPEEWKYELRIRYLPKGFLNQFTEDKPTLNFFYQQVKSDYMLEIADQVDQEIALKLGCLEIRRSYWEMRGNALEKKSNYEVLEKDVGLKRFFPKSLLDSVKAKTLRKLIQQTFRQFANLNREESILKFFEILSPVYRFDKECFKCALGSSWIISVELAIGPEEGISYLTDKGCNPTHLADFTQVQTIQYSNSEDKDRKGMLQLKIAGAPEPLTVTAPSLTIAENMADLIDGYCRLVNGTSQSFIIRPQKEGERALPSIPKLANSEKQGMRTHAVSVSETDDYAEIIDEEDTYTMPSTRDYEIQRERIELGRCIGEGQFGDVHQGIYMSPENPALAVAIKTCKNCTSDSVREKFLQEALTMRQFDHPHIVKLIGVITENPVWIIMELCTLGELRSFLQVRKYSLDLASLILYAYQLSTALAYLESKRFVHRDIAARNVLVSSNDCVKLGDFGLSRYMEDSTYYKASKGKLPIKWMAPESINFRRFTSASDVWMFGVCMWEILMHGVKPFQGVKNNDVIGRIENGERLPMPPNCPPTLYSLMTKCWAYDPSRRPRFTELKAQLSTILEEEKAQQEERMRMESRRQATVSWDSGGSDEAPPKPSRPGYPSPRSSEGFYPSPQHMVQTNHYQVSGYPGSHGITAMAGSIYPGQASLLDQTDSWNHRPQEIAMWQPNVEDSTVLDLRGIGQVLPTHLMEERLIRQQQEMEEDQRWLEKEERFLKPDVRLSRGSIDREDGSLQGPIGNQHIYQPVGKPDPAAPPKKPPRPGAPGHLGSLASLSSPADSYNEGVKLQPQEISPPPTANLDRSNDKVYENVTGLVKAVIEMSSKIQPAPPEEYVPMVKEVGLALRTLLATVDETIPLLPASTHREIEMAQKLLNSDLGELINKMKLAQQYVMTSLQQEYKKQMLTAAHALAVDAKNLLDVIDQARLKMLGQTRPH

[4] = target: Serine/threonine-protein kinase PLK3 (Homo sapiens, UniProt Q9H4B4); experiment: Selectivity interaction (Ambit kinase binding assay panel) EUB0000608a PLK3; settings: at 10 µM
[5] = target: T3, Dual specificity protein kinase TTK (Homo sapiens) (UniProt P33981); experiment: Selectivity interaction (Ambit kinase binding assay panel) EUB0000608a TTK; settings: at 10 µM
T3 sequence (whole entry): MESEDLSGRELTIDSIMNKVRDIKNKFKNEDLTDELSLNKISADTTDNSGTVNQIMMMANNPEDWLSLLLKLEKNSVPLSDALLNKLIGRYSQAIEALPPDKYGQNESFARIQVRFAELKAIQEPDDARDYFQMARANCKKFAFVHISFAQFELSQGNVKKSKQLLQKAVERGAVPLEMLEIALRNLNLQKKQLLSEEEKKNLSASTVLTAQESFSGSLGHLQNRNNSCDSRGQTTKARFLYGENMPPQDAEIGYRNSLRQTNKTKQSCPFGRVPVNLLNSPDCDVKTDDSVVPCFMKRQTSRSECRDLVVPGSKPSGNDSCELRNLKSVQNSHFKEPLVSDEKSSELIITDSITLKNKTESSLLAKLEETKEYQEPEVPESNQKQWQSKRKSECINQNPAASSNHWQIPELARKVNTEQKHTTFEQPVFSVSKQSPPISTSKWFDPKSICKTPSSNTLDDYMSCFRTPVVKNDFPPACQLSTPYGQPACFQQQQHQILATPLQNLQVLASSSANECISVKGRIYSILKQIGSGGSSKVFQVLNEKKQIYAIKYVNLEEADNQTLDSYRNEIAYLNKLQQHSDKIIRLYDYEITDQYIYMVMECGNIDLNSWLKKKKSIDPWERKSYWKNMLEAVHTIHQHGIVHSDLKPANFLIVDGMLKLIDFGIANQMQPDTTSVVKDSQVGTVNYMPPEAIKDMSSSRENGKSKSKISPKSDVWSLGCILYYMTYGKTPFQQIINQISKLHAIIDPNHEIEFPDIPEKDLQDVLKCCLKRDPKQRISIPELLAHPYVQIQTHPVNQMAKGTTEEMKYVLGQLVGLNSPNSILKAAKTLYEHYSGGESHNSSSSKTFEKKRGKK

[6] = target: NT-3 growth factor receptor (Homo sapiens, UniProt Q16288); experiment: Selectivity interaction (SelectScreen kinase panel (Invitrogen)) EUB0000133b NTRK3; settings: at 1 µM
[7] = target: Fibroblast growth factor receptor 2 (Homo sapiens) (UniProt P21802); experiment: Selectivity interaction (SelectScreen kinase panel (Invitrogen)) EUB0000133b FGFR2; settings: at 1 µM
Sequence of Fibroblast growth factor receptor 2 (Homo sapiens) (P21802 22-821 limits assumed): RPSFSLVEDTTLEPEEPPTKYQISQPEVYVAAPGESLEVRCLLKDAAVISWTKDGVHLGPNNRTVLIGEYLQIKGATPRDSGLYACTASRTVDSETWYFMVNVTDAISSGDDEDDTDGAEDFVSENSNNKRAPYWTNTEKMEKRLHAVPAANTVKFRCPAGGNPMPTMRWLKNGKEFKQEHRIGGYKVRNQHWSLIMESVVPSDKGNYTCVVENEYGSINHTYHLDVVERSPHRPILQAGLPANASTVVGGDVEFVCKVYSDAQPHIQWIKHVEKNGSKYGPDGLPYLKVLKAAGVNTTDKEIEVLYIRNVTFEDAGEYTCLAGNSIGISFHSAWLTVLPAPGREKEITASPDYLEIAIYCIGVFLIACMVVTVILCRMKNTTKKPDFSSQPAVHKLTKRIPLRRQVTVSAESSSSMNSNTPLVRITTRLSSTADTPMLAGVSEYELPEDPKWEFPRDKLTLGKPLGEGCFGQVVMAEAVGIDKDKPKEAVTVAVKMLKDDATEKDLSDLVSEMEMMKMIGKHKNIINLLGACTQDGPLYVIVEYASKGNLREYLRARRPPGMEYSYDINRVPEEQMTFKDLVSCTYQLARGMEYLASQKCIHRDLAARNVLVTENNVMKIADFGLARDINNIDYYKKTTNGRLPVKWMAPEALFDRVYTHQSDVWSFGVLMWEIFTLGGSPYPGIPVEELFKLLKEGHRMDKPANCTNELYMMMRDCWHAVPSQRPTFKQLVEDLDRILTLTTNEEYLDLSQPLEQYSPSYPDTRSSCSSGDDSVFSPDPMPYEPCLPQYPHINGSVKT

Ephrin type-A receptor 4 = Ephrin type-A receptor 4 (Homo sapiens, UniProt P54764); experiment: Selectivity interaction (SelectScreen kinase panel (Invitrogen)) EUB0000133b EPHA4; settings: at 1 µM
[8] = target: Tyrosine-protein kinase Blk (Homo sapiens) (UniProt P51451); experiment: Selectivity interaction (SelectScreen kinase panel (Invitrogen)) EUB0000133b BLK; settings: at 1 µM
[9] = target: Calcium/calmodulin-dependent protein kinase type II subunit alpha (Homo sapiens, UniProt Q9UQM7); experiment: Selectivity interaction (SelectScreen kinase panel (Invitrogen)) EUB0000133b CAMK2A; settings: at 1 µM
[10] = target: Tyrosine-protein kinase Fgr (Homo sapiens) (UniProt P09769); experiment: Selectivity interaction (SelectScreen kinase panel (Invitrogen)) EUB0000133b FGR; settings: at 1 µM
[11] = target: Ephrin type-A receptor 2 (Homo sapiens) (UniProt P29317); experiment: Selectivity interaction (SelectScreen kinase panel (Invitrogen)) EUB0000133b EPHA2; settings: at 1 µM
[12] = target: MAP kinase-activated protein kinase 3 (Homo sapiens) (UniProt Q16644); experiment: Selectivity interaction (SelectScreen kinase panel (Invitrogen)) EUB0000133b MAPKAPK3; settings: at 1 µM
[13] = target: RAF proto-oncogene serine/threonine-protein kinase (Homo sapiens) (UniProt P04049); settings: at 1 µM
[14] = target: Receptor-interacting serine/threonine-protein kinase 2 (Homo sapiens, UniProt O43353); settings: at 1 µM
Sequence of Receptor-interacting serine/threonine-protein kinase 2 (O43353 whole entry): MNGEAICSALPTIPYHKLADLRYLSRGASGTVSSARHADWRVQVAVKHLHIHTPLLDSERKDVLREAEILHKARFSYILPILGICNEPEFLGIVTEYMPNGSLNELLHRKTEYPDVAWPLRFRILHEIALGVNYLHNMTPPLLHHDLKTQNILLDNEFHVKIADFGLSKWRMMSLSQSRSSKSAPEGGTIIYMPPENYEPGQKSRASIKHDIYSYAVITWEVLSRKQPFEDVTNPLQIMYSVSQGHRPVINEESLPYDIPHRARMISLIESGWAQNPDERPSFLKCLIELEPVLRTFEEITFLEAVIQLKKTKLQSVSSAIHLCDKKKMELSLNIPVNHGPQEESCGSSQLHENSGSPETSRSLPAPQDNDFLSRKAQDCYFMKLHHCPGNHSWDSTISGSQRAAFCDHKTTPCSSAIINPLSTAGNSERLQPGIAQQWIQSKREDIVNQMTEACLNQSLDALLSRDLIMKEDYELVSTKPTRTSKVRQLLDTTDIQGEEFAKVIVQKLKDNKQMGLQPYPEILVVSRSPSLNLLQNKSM

[15] = target: Vascular endothelial growth factor receptor 2 (Homo sapiens, UniProt P35968); settings: at 1 µM
Sequence of Vascular endothelial growth factor receptor 2 (P35968 whole entry): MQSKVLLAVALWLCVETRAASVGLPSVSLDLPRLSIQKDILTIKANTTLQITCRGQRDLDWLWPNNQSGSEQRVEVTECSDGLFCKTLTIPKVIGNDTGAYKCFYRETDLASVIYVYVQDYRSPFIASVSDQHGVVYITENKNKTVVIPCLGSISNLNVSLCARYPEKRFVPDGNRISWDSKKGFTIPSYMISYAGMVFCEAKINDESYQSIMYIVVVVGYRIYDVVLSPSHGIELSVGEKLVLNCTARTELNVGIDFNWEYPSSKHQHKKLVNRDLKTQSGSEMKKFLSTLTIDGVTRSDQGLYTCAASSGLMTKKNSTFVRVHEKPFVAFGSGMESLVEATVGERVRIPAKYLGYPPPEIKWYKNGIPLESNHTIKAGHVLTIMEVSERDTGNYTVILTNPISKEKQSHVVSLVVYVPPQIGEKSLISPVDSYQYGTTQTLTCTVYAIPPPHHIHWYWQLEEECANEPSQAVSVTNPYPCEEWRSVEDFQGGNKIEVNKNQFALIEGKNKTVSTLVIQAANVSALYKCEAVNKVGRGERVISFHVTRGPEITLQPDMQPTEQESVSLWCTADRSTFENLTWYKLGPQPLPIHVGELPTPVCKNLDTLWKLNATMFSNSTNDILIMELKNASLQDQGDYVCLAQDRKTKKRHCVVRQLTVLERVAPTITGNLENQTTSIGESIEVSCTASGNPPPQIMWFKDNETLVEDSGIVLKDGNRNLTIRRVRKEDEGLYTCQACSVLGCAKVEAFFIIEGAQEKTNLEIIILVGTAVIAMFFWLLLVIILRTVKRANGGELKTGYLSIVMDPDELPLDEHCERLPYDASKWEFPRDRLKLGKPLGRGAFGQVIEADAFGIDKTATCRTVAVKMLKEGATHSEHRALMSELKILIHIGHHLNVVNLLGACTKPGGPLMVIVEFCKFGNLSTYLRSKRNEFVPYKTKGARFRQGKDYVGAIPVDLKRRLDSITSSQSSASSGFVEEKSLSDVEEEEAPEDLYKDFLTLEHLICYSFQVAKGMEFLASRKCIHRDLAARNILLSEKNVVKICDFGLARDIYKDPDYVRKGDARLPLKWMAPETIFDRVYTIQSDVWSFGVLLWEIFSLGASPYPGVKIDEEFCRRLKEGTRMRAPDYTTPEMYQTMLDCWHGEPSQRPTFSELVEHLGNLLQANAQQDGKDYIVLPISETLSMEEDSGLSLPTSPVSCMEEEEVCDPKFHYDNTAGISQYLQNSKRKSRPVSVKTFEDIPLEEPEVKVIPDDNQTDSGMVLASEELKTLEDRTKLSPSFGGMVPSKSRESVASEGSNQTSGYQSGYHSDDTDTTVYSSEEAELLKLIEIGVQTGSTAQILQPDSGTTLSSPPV

[16] = target: Mitogen-activated protein kinase kinase kinase kinase 4 (Homo sapiens, UniProt O95819); settings: at 1 µM
Sequence of Mitogen-activated protein kinase kinase kinase kinase 4 (O95819 2-1239 limits assumed): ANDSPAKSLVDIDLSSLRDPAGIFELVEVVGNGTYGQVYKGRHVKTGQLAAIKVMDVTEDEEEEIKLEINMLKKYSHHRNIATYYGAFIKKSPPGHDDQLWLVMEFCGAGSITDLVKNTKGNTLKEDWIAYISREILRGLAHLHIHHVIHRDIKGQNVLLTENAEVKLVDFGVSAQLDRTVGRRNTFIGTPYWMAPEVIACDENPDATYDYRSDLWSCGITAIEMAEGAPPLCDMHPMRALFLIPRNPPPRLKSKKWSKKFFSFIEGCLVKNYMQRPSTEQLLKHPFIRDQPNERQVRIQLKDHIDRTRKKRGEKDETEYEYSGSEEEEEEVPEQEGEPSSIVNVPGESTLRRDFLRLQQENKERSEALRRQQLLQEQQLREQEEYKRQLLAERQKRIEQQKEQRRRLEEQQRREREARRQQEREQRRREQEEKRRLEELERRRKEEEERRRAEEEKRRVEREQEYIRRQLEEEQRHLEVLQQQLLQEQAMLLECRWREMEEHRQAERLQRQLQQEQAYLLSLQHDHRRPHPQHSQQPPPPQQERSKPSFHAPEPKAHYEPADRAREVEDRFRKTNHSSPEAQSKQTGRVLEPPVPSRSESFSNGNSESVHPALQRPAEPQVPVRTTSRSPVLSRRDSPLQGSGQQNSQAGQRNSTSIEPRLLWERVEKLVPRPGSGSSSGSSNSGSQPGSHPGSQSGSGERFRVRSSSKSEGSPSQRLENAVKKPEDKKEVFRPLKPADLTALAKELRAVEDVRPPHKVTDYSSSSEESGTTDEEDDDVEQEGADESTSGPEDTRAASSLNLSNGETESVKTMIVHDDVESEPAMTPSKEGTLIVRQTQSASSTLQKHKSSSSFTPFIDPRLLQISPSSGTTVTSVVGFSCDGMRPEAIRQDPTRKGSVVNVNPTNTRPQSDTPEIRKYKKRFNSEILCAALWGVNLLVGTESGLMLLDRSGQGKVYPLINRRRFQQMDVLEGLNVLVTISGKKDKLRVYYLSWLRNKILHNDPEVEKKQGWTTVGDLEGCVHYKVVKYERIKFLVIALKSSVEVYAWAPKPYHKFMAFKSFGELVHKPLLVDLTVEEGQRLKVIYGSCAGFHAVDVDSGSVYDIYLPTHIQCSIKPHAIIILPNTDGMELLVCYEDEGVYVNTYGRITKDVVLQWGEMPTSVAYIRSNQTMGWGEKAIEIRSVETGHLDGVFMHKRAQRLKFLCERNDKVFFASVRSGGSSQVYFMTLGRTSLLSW

[17] = system: Platelet-derived growth factor receptor alpha (Homo sapiens), P16234 [V561D]; settings: at 1 µM
[18] = target: Vascular endothelial growth factor receptor 3 (Homo sapiens, UniProt P35916); settings: at 1 µM
[19] = target: Vascular endothelial growth factor receptor 1 (Homo sapiens) (UniProt P17948); settings: at 1 µM
Misshapen-like kinase 1 = Misshapen-like kinase 1 (Homo sapiens, UniProt Q8N4C8); settings: at 1 µM
[20] = target: Platelet-derived growth factor receptor alpha (Homo sapiens, UniProt P16234); settings: at 1 µM

% of control [1]: 2%
% of control [2]: 0%
% of control [3]: 27%
% of control (Focal adhesion kinase 1): 24%
% of control [4]: 15%
% of control [5]: 3.2%
Compound: CCOc1cc(N2CCC(O)CC2)ccc1Nc1ncc2c(n1)N(C1CCCC1)CCC(=O)N2C

% of inhibition [6]: 91%
% of inhibition [7]: 90%
% of inhibition (Ephrin type-A receptor 4): 94%
% of inhibition [8]: 92%
% of inhibition [9]: 95%
% of inhibition [10]: 97%
% of inhibition [11]: 100%
% of inhibition [12]: 91%
Compound: COc1cc(Nc2ncc3c(n2)-c2ccc(Cl)cc2C(c2c(F)cccc2OC)=NC3)ccc1C(=O)O

% of control [13]: 8%
Compound: OCCn1cc(-c2ccc3c(c2)CCC3=NO)c(-c2ccncc2)n1

% of residual activity [14]: 7%
% of residual activity [15]: 11%
% of residual activity [16]: 41%
% of residual activity [17]: 43%
% of residual activity [18]: 28%
% of residual activity [19]: 38%
% of residual activity (Misshapen-like kinase 1): 21%
% of residual activity [20]: 47%
Compound: Cc1cccc(-c2[nH]c(CNc3ccccc3F)nc2-c2ccc3ncnn3c2)n1
